# Reference: BindingDB's records for patent US20230303494 (Academy of Military Medical Sciences, 2023)
# Biological target: Programmed cell death 1 ligand/protein 1 (Homo sapiens, UniProt Q9NZQ7+Q15116)
# Test: Activity of Compounds to Inhibit PD-1/PD-L1 Interaction
# Programmed cell death 1 ligand/protein 1, sequence (Q9NZQ7 whole entry): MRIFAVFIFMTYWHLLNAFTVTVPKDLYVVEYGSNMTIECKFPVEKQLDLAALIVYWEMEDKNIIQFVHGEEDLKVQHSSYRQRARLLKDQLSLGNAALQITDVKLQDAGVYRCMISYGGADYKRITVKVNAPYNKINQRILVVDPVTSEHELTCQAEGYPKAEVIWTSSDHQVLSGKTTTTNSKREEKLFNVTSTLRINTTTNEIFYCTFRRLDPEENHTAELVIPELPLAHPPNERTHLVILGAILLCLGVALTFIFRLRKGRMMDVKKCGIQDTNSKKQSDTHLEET
# Programmed cell death 1 ligand/protein 1, sequence (Q15116 whole entry): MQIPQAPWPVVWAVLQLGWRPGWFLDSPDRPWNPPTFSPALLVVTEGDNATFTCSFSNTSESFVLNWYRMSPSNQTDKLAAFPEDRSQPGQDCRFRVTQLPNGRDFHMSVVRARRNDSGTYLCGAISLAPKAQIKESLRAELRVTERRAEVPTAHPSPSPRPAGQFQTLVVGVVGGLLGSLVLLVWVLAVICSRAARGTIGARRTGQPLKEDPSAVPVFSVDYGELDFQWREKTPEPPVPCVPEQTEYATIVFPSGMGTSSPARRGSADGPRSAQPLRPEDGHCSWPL
row,SMILES,IC50
1,"Cc1cc(CNC(CO)C(=O)O)c(OCc2cncc(C#N)c2)cc1NCc1cccc(-c2ccc3c(c2)OCCO3)c1C (stereo unspecified) [US20230303494, Compound 35]",44 nM
2,"Cc1cc(CNC(CO)C(=O)O)c(OCc2cncc(C#N)c2)cc1NCc1cccc(-c2ccccc2)c1Br (stereo unspecified) [US20230303494, Compound 32]",31 nM
3,"Cc1c(CNc2cc(OCc3cncc(C#N)c3)c(CNC(CO)C(=O)O)cc2Cl)cccc1-c1ccccc1 (stereo unspecified) [US20230303494, Compound 13]",26 nM
4,"Cc1c(CNc2cc(OCc3cncc(C#N)c3)c(CNC(CO)C(=O)O)cc2Cl)cccc1-c1ccc2c(c1)OCCO2 (stereo unspecified) [US20230303494, Compound 36]",131 nM
5,"N#Cc1cncc(COc2cc(NCc3cccc(-c4ccccc4)c3Br)ccc2CNC(CO)C(=O)O)c1 (stereo unspecified) [US20230303494, Compound 31]",206 nM
6,"COc1cc(NCc2cccc(-c3ccccc3)c2C)c(C)cc1CNC(CO)C(=O)O (stereo unspecified) [US20230303494, Compound 14]",253 nM
